Assay results as given in patent US20260200945A1, “4-(3,8-DIAZABICYCLO[3,2,1]OCTAN-3-YL)-PYRIDO[4,3-D]PYRIMIDINE DERIVATIVES AS INHIBITORS OF THE KRAS (G12D) MUTANT ONCOPROTEIN FOR THE TREATMENT OF CANCER” (Ranok Therapeutics (Hangzhou) Co. Ltd., priority 2022, published 2026).

Columns and labels:
[1] = system: AGS cells; assay: Cancer Cell Line Proliferation (CellTiter-Glo) AGS; format: cell-based; conditions: Homo sapiens, 72 hr, read-out: CTG(IC50) ABS-72H(nM) AGS
Experimental: (§1) The following cancer cell lines were employed: AGS gastric carcinoma [heterozygous […]](ATCC, CRL-1739); A-427 lung carcinoma [heterozygous G12D](ATCC, HTB-53); ASPC1 pancreatic adenocarcinoina [homozygous […]](ATCC, CRL-1682) and SW1990 pancreatic adenocarcinoma [homozygous G12D](ATCC CRL-2172). Cell lines were cultured essentially according to ATCC recommendations. AGS, SW1990, and GP2D cells were plated in 96-well tissue culture plates at 4,000 cells/well and incubated at 37° C./5% CO2 for 72 hr in 100 μl of media. 3-fold serial dilutions of each test compound were prepared ranging from 20 µM to 1.02 nM. Each cell line was then treated with test compounds at various concentrations with a final concentration of 0.5% DMSO/well, and then incubated at 37° C./5% CO2 for 72 hr. 100 μl of CellTiter-Glo® Reagent (Promega Corporation, Madison, WI) was added to each well and processed according manufacturer's protocol. Results were analyzed and IC50 values were calculated in GraphPad 7 software.

[2] = system: GP2D cells; assay: Cancer Cell Line Proliferation (CellTiter-Glo) GP2D; format: cell-based; conditions: 72 hr, read-out: CTG(IC50) ABS-72H(nM) GP2D
Experimental: AGS, SW1990, and GP2D cells were plated in 96-well tissue culture plates at 4,000 cells/well and incubated at 37° C./5% CO2 for 72 hr in 100 μl of media. 3-fold serial dilutions of each test compound were prepared ranging from 20 µM to 1.02 nM. Each cell line was then treated with test compounds at various concentrations with a final concentration of 0.5% DMSO/well, and then incubated at 37° C./5% CO2 for 72 hr. 100 μl of CellTiter-Glo® Reagent (Promega Corporation, Madison, WI) was added to each well and processed according manufacturer's protocol. Results were analyzed and IC50 values were calculated in GraphPad 7 software.

[3] = biological target: T1, KRAS(G12D)/SOS1 (Homo sapiens, UniProt P01116, G12D); assay: KRAS(G12D)/SOS1 Homogeneous Time-Resolved Fluorescence (HTRF) Assay; format: binding; conditions: absence of GTP, 4° C. for 3 hr
T1 construct: purchased Cisbio 63ADK000CB17PEH
T1 sequence (P01116 1-188 isoform P01116-2 G12D): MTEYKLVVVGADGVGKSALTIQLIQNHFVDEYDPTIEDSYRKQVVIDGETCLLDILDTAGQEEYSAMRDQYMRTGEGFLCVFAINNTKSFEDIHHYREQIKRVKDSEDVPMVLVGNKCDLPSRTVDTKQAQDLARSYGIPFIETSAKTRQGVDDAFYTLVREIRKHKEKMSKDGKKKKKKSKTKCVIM
Experimental: Binding of test compounds to KRAS(G12D) target protein, which in turn blocks KRAS(G12D) interaction with the SOS1 protein, was measured in the absences of GTP by homogeneous time-resolved fluorescence using the KRAS-G12D/SOS1 Binding Assay Kit (Cisbio, 63ADK000CB17PEH), following the manufacturer's instructions, except as noted. 3-fold serial dilutions of each test compound were prepared ranging from 20 µM to 1.02 nM. The test compound was mixed and incubated with reaction components, incubated in a sealed plate at 4° C. for 3 hr and fluorescence was measured using a PerkinElmer Envision plate reader. The KRAS(G12D)-SOS1 IC50 values (the concentration of 50% of the maximal inhibition) were calculated using GraphPad Prism 7 software.

[4] = Oral Bioavailability in CD-1 mice; format: in vivo; conditions: mouse, blood; male CD-1 mice, single oral dose, LC-MS/MS; read-out: % F (mean oral bioavailability)
Experimental: CD-1 mice were randomly assigned to 6 groups with 3 male mice in each compound group. Compounds were orally administered (P0) in a single dose to each mouse in its group. Blood samples were taken within 72 hours. Bioavailability (F %) was determined and by liquid chromatography-mass spectrometry (LC-MS/MS).

[5] = system: SW1990 cells; assay: Cancer Cell Line Proliferation (CellTiter-Glo) SW1990; format: cell-based; conditions: Homo sapiens, 72 hr, read-out: CTG(IC50) ABS-72H(nM) SW1990
Experimental: as §1

SMILES | IC50 [1] [nM] | IC50 [2] [nM] | IC50 [3] [nM] | bioavailability [4] [%] | IC50 [5] [nM]
C#Cc1c(F)ccc2cc(O)cc(-c3nc(OC)c4c(N5CC6CCC(C5)N6)nc(OCC(=CCC)CN5CC6CC6C5)nc4c3F)c12 (centres unmarked) [Example 7] | 100 to 1000 | 100 to 1000 | – | – | –
C#Cc1c(F)ccc2c(F)c(O)cc(-c3nc(OC)c4c(N5CC6CCC(C5)N6)nc(OCC(CN5CC6CC6C5)=C(C)C)nc4c3F)c12 (centres unmarked) [Example 19] | 100 to 1000 | < 100 | – | – | –
C#Cc1c(F)ccc2cc(N)cc(-c3nc(OC)c4c(N5CC6CCC(C5)N6)nc(OCC(=C)CN5CC6CC6C5)nc4c3F)c12 (centres unmarked) [Example 10] | 100 to 1000 | < 100 | – | – | –
C#Cc1c(F)ccc2cc(O)cc(-c3nc(OC)c4c(N5CC6CCC(C5)N6)nc(OC/C(=C\C(F)(F)F)CN5CC6CC6C5)nc4c3F)c12 (centres unmarked) [Example 13] | 100 to 1000 | 100 to 1000 | – | – | –
C#Cc1c(F)ccc2cc(O)cc(-c3nc(OC)c4c(N5CC6CCC(C5)N6)nc(OC/C(=C\C)CN5CC6CC6C5)nc4c3F)c12 (centres unmarked) [Example 9] | < 100 | < 100 | – | – | –
C#Cc1c(F)ccc2cc(O)cc(-c3nc(OC)c4c(N5CC6CCC(C5)N6)nc(OCC(=C)CN5CC6C(F)C6C5)nc4c3F)c12 (centres unmarked) [Example 5] | < 100 | < 100 | < 100 | 7.7 | < 100
[2H]C([2H])([2H])Oc1nc(-c2cc(O)cc3ccc(F)c(C#C)c23)c(F)c2nc(OCC(=C)CN3CC4C(F)C4C3)nc(N3CC4CCC(C3)N4C(=O)C(F)(F)F)c12 (centres unmarked) [Example 8] | 100 to 1000 | 100 to 1000 | – | – | –
C#Cc1c(F)ccc2cc(O)cc(-c3nc(OC)c4c(N5CC6CCC(C5)N6)nc(OCC(=C)CN5CC6CC6C5)nc4c3F)c12 (centres unmarked) [Example 1, 4-{2-[(2-{3-azabicyclo[3.1.0]hexan-3-ylmethyl}prop-2-en-1-yl)oxy]-4-{3,8-diazabicyclo[3.2.1]octan-3-yl}-8-fluoro-5-methoxypyrido[4,3-d]pyrimidin-7-yl}-5-ethynyl-6-fluoronaphthalen-2-ol] | < 100 | < 100 | < 100 | 10.6 | < 100
C#Cc1c(F)ccc2cc(O)cc(-c3nc(OC)c4c(N5CC6CCC(C5)N6)nc(OCC(CN5CC6CC6C5)=C(C)C)nc4c3F)c12 (centres unmarked) [Example 2, 4-{2-[(2-{3-azabicyclo[3.1.0]hexan-3-ylmethyl}-3-methylbut-2-en-1-yl)oxy]-4-{3,8-diazabicyclo[3.2.1]octan-3-yl}-8-fluoro-5-methoxypyrido[4,3-d]pyrimidin-7-yl}-5-ethynyl-6-fluoronaphthalen-2-ol] | < 100 | < 100 | < 100 | 12.1 | < 100
[2H]C([2H])([2H])Oc1nc(-c2cc(O)cc3ccc(F)c(C#C)c23)c(F)c2nc(OCC(=C)CN3CC4CC4C3)nc(N3CC4CCC(C3)N4)c12 (centres unmarked) [Example 4] | < 100 | < 100 | < 100 | 1.7 | < 100
C#Cc1c(F)ccc2cc(O)cc(-c3nc(OC)c4c(N5CC6CCC(C5)N6)nc(OC/C(=C\C#N)CN5CC6CC6C5)nc4c3F)c12 (centres unmarked) [Example 18] | 100 to 1000 | – | – | – | –
C#Cc1c(F)ccc2cc(O)cc(-c3ncc4c(N5CC6CCC(C5)N6)nc(OCC(=C)CN5CCC(F)CC5)nc4c3F)c12 [Example 3] | < 100 | < 100 | < 100 | – | < 100
C#Cc1c(F)ccc2cc(O)cc(-c3nc(OC)c4c(N5CC6CCC(C5)N6)nc(OCC(CN5CC6CC6C5)=C(F)F)nc4c3F)c12 (centres unmarked) [Example 6] | < 100 | < 100 | – | – | < 100
C#Cc1c(F)ccc2cc(O)cc(-c3nc(OC)c4c(N5CC6CCC(C5)N6)nc(OC/C(=C\CC)CN5CC6CC6C5)nc4c3F)c12 (centres unmarked) [Example 12] | 100 to 1000 | < 100 | – | – | –
C#Cc1c(F)ccc2cc(O)cc(-c3nc(OC)c4c(N5CC6CCC(C5)N6)nc(OC/C(CN5CC6CC6C5)=N/OC)nc4c3F)c12 (centres unmarked) [Example 15] | < 100 | < 100 | – | – | –
C#Cc1c(F)ccc2cc(O)cc(-c3nc(OC)c4c(N5CC6CCC(C5)N6)nc(OC/C(CN5CC6CC6C5)=N\OC)nc4c3F)c12 (centres unmarked) [Example 16] | < 100 | < 100 | – | – | –
C#Cc1c(F)ccc2cc(O)cc(-c3nc(OC)c4c(N5CC6CCC(C5)N6CC#N)nc(OCC(CN5CC6CC6C5)=C(C)C)nc4c3F)c12 (centres unmarked) [Example 14] | < 100 | < 100 | – | – | –
C#Cc1c(F)ccc2cc(O)cc(-c3nc(OC)c4c(N5CC6CCC(C5)N6)nc(OC/C(=C/CC)CN5CC6CC6C5)nc4c3F)c12 (centres unmarked) [Example 11] | < 100 | < 100 | – | – | –
